In the OligoGym collection:
Oligonucleotides are written 5' to 3', each unit as a sugar letter and its base; * is a phosphorothioate linkage, no mark a phosphodiester; rarer units and linkages stand in square brackets, end groups in braces. Plain capitals give the bases only. d = 2'-deoxy (DNA); r = 2'-OH (RNA)

These substances were tested against UBE2C (assay: reporter assay of Huesken 2005). Conditions: siRNA.
Further: test concentration or dose not given here.

Substance	normalised inhibition (eCFP-eYFP dual reporter) [%]
sense rArArUrGrCrGrCrCrCrArCrArGrUrGrArArGrUdTdT / antisense rArCrUrUrCrArCrUrGrUrGrGrGrCrGrCrArUrUdGdT	57.6
sense rArCrArArUrGrCrGrCrCrCrArCrArGrUrGrArAdTdT / antisense rUrUrCrArCrUrGrUrGrGrGrCrGrCrArUrUrGrUdAdA	93.7
sense rArCrArCrArCrArUrGrCrUrGrCrCrGrArGrCrUdTdT / antisense rArGrCrUrCrGrGrCrArGrCrArUrGrUrGrUrGrUdTdC	78
sense rArCrArGrUrArUrArUrGrArArGrArCrCrUrGrAdTdT / antisense rUrCrArGrGrUrCrUrUrCrArUrArUrArCrUrGrUdTdC	88.1
sense rArCrArUrArUrGrCrCrUrGrGrArCrArUrCrCrUdTdT / antisense rArGrGrArUrGrUrCrCrArGrGrCrArUrArUrGrUdTdA	75.7
sense rArCrArUrCrCrUrGrArArGrGrArArArArGrUrGdTdT / antisense rCrArCrUrUrUrUrCrCrUrUrCrArGrGrArUrGrUdCdC	46.2
sense rArCrArUrUrGrArUrArGrUrCrCrCrUrUrGrArAdTdT / antisense rUrUrCrArArGrGrGrArCrUrArUrCrArArUrGrUdTdG	90.8
sense rArCrCrArUrCrCrArUrGrGrArGrCrArGrCrUrGdTdT / antisense rCrArGrCrUrGrCrUrCrCrArUrGrGrArUrGrGrUdCdC	62.1
sense rArCrCrCrArGrGrGrUrArArCrArUrArUrGrCrCdTdT / antisense rGrGrCrArUrArUrGrUrUrArCrCrCrUrGrGrGrUdGdT	39.6
sense rArCrCrCrUrUrArCrArArUrGrCrGrCrCrCrArCdTdT / antisense rGrUrGrGrGrCrGrCrArUrUrGrUrArArGrGrGrUdAdG	47.4
sense rArCrCrUrGrArGrGrUrArUrArArGrCrUrCrUrCdTdT / antisense rGrArGrArGrCrUrUrArUrArCrCrUrCrArGrGrUdCdT	80.9
sense rArCrGrUrGrGrArCrArCrCrCrArGrGrGrUrArAdTdT / antisense rUrUrArCrCrCrUrGrGrGrUrGrUrCrCrArCrGrUdTdG	83
sense rArGrArCrCrUrGrArGrGrUrArUrArArGrCrUrCdTdT / antisense rGrArGrCrUrUrArUrArCrCrUrCrArGrGrUrCrUdTdC	71.7
sense rArGrArGrUrUrCrCrCrCrArGrUrGrGrCrUrArCdTdT / antisense rGrUrArGrCrCrArCrUrGrGrGrGrArArCrUrCrUdAdG	87
sense rArGrCrUrGrGrArArCrArGrUrArUrArUrGrArAdTdT / antisense rUrUrCrArUrArUrArCrUrGrUrUrCrCrArGrCrUdGdC	97.5
sense rArGrGrArGrArArCrCrCrArArCrArUrUrGrArUdTdT / antisense rArUrCrArArUrGrUrUrGrGrGrUrUrCrUrCrCrUdAdG	94.2
sense rArGrGrUrArUrArArGrCrUrCrUrCrGrCrUrArGdTdT / antisense rCrUrArGrCrGrArGrArGrCrUrUrArUrArCrCrUdCdA	92.4
sense rArGrUrArUrArUrGrArArGrArCrCrUrGrArGrGdTdT / antisense rCrCrUrCrArGrGrUrCrUrUrCrArUrArUrArCrUdGdT	77.2
sense rArGrUrGrGrCrUrArCrCrCrUrUrArCrArArUrGdTdT / antisense rCrArUrUrGrUrArArGrGrGrUrArGrCrCrArCrUdGdG	76.9
sense rArGrUrGrGrUrCrUrGrCrCrCrUrGrUrArUrGrAdTdT / antisense rUrCrArUrArCrArGrGrGrCrArGrArCrCrArCrUdTdT	61.1
